pIC50: −log10 of the molar value.
What was measured:
Format in all cases: cell-based
HTT CJ mRNA [1] = test: RT-qPCR splicing assay, HTT canonical junction (CJ) mRNA decrease; settings: A673 or K562 cells, 24 hours compound treatment, top dose 10 uM; concentration having 50% response in CJ decrease
Method: (§1) Compounds described herein were used to modulate RNA transcript abundance in cells. The expression of a target mRNA was measured by detecting the formation of an exon-exon junction in the canonical transcript (CJ). A compound mediated exon-inclusion event was detected by observing an increase in formation of a new junction with an alternative exon (AJ). Real-time qPCR assays were used to detect these splicing switches and interrogate the potency of various compounds towards different target genes. A high-throughput real time quantitative PCR (RT-qPCR) assay was developed to measure these two isoforms of the mRNA (CJ and AJ) for an exemplary gene, HTT, together with a control housekeeping gene, GAPDH or GUSB or PPIA, used for normalization. Briefly, the A673 or K562 cell line was treated with various compounds described herein (e.g., compounds of Formula (I) or (II)). After treatment, the levels of the HTT mRNA targets were determined from each sample of cell lysate by cDNA synthesis followed by qPCR.
(§2) The A673 cell line was cultured in DMEM with 10% FBS. Cells were diluted with full growth media and plated in a 96-well plate (15,000 cells in 100 ul media per well). The plate was incubated at 37° C. with 5% CO2 for 24 hours to allow cells to adhere. An 11-point 3-fold serial dilution of the compounds was made in DMSO then diluted in media in an intermediate plate. Compounds were transferred from the intermediate plate to the cell plate with the top dose at a final concentration of 10 uM in the well. Final DMSO concentration was kept at or below 0.25%. The cell plate was returned to the incubator at 37° C. with 5% CO2 for an additional 24 hours.
(§3) The K562 cell line was cultured in IMDM with 10% FBS. For K562, cells were diluted with full growth media and plated in either a 96-well plate (50,000 cells in 50 uL media per well) or a 384-well plate (8,000-40,000 cells in 45 uL media per well). An 11-point 3-fold serial dilution of the compounds were made in DMSO then diluted in media in an intermediate plate. Compound was transferred from the intermediate plate to the cell plate with the top dose at a final concentration of 10 uM in the well. Final DMSO concentration was kept at or below 0.25%. Final volume was 100 uL for 96-well plate and 50 uL for 384-well plate. The cell plate was then placed in an incubator at 37° C. with 5% CO2 for 24 hours.
(§4) The cells were then gently washed with 50 uL-100 uL cold PBS before proceeding to addition of lysis buffer. 30 uL-50 uL of room temperature lysis buffer with DNAse I (and optionally RNAsin) was added to each well. Cells were shaken/mixed thoroughly at room temperature for 5-10 minutes for lysis to take place and then 3 uL-5 uL of room temperature stop solution was added and wells were shaken/mixed again. After 2-5 minutes, the cell lysate plate was transferred to ice for RT-qPCR reaction setup. The lysates could also be frozen at −80° C. for later use.
(§5) In some cases, a direct lysis buffer was used. An appropriate volume of 3× lysis buffer (10 mM Tris, 150 mM NaCl, 1.5%-2.5% Igepal and 0.1-1 U/uL RNAsin, pH 7.4) was directly added to either K562 or A673 cells in media and mixed by pipetting 3 times. The plates were then incubated at room temperature with shaking/rocking for 20-50 minutes to allow for lysis to take place. After this time, the cell lysate plate was transferred to ice to set up for the RT-qPCR reactions. The lysates could also be frozen at −80° C. for later use.
(§6) To set up 10 uL RT-qPCR reactions, cell lysates were transferred to 384-well qPCR plates containing the master mix according to the table below. The plates were sealed, gently vortexed, and spun down before the run. The volumes were adjusted accordingly in some instances where the reaction was carried in 20 uL. The table below summarizes the components of the RT-qPCR reactions:
(§7) The RT-qPCR reaction was performed using a QuantStudio (ThermoFisher) under the following fast cycling conditions. […]

Target C CJ mRNA = test: Gene panel canonical junction qPCR assay, Target C; settings: protocol as above, concentration having 50% response in CJ decrease, read-out: Target C IC50 (decrease in CJ mRNA levels)
Method: as §1, §2, §3, §4, §5, §6, §7

SMN2 CJ mRNA = test: Gene panel canonical junction qPCR assay, SMN2; settings: protocol as above, concentration having 50% response in CJ decrease, read-out: SMN2 IC50 (decrease in CJ mRNA levels)
Method: as §1, with “After treatment, the levels of the HTT mRNA targets were determined from each sample of cell lysate by cDNA synthesis followed by qPCR.” left out
as §2, §3, §4, §5, §6
The RT-qPCR reaction was performed using a QuantStudio (ThermoFisher) under the following fast cycling conditions. All samples and standards were analyzed at least in duplicate. […]

HTT AJ mRNA = test: RT-qPCR splicing assay, HTT alternative junction (AJ) mRNA increase; settings: A673 or K562 cells, 24 hours compound treatment, top dose 10 uM; concentration having 50% response in AJ increase
Method: as §1, §2, §3, §4, §5, §6, §7

HTT CJ mRNA [2] = test: Gene panel canonical junction qPCR assay, HTT; settings: protocol as above, concentration having 50% response in CJ decrease, read-out: HTT IC50 (decrease in CJ mRNA levels)
Method: as §1, §2, §3, §4, §5, §6, §7

Row | pIC50 (Target C CJ mRNA) | pIC50 (SMN2 CJ mRNA) | pIC50 (HTT CJ mRNA [2]) | Structure (SMILES) | AC50 (HTT CJ mRNA [1]) | AC50 (HTT AJ mRNA)
1 | < 5.00 | < 5.00 | < 5.00 | Cc1cn2nc(-n3cnc4ccc(N5CCNCC5)cc4c3=O)cc(C)c2n1 [Compound 201, 3-(2,8-dimethylimidazo[1,2-b]pyridazin-6-yl)-6-(piperazin-1-yl)quinazolin-4(3H)-one] | > 10 µM | > 10 µM
2 | 5.00 to 6.00 | 5.00 to 6.00 | 5.00 to 6.00 | Cc1cn2nc(-n3cnc4ccc(N5CCN(C)CC5)cc4c3=O)cc(C)c2n1 [Compound 202, 3-(2,8-dimethylimidazo[1,2-b]pyridazin-6-yl)-6-(4-methylpiperazin-1-yl)quinazolin-4(3H)-one] | 1 to 10 µM | 1 to 10 µM
3 | < 5.00 | < 5.00 | < 5.00 | Cc1cc(-c2ccc3c(=O)[nH]c(N4CCNCC4)nc3c2)cc2cn(C)nc12 [Compound 211, 7-(2,7-dimethyl-2H-indazol-5-yl)-2-(piperazin-1-yl)quinazolin-4(3H)-one] | > 10 µM | > 10 µM
4 | 5.00 to 6.00 | 5.00 to 6.00 | 5.00 to 6.00 | Cc1cc(-c2ccc3c(=O)[nH]c(N4CCN(C)CC4)nc3c2)cc2cn(C)nc12 [Compound 212, 7-(2,7-dimethyl-2H-indazol-5-yl)-2-(4-methylpiperazin-1-yl)quinazolin-4(3H)-one] | 1 to 10 µM | 1 to 10 µM
5 | < 5.00 | < 5.00 | < 5.00 | Cc1cc(-c2nc3cc(N4CCNCC4)ccc3c(=O)[nH]2)cc2cn(C)nc12 [Compound 213, 2-(2,7-dimethyl-2H-indazol-5-yl)-7-(piperazin-1-yl)quinazolin-4(3H)-one] | > 10 µM | > 10 µM
6 | < 5.00 | < 5.00 | < 5.00 | Cc1cc(-c2nc3cc(N4CCN(C)CC4)ccc3c(=O)[nH]2)cc2cn(C)nc12 [Compound 214, 2-(2,7-dimethyl-2H-indazol-5-yl)-7-(4-methylpiperazin-1-yl)quinazolin-4(3H)-one] | > 10 µM | > 10 µM

Row | Structure (SMILES) | pIC50 (Target C CJ mRNA) | pIC50 (SMN2 CJ mRNA) | pIC50 (HTT CJ mRNA [2]) | AC50 (HTT CJ mRNA [1]) | AC50 (HTT AJ mRNA)
7 | CN1CCC(N(C)c2ccc3ncn(-c4cc(F)c5nn(C)cc5c4)c(=O)c3c2)CC1 [Compound 199, 3-(7-fluoro-2-methyl-2H-indazol-5-yl)-6-(methyl(1-methylpiperidin-4-yl)amino)quinazolin-4(3H)-one] | < 5.00 | < 5.00 | < 5.00 | > 10 µM | > 10 µM
8 | Cc1cn2cc(-n3cnc4ccc(N(C)C5CCNCC5)cc4c3=O)cc(F)c2n1 [Compound 200, 3-(8-fluoro-2-methylimidazo[1,2-a]pyridin-6-yl)-6-(methyl(piperidin-4-yl)amino)quinazolin-4(3H)-one] | < 5.00 | < 5.00 | < 5.00 | > 10 µM | > 10 µM
